From the NIST ThermoML archive (doi:10.1021/je500079y)
Numbers after ± are expanded uncertainties.

Experiment: wn = mass fraction of the nth substance listed
Details: 101 kPa, Liquid, Vibrating tube method

CCOS(=O)(=O)[O-].CCn1cc[n+](C)c1 [1-ethyl-3-methylimidazolium ethyl sulfate] + O=C[C@H](O)[C@@H](O)[C@H](O)[C@H](O)CO
mass density [kg/m3]
Details | w2 = 0.046 | w2 = 0.059 | w2 = 0.097 | w2 = 0.134 | w2 = 0.154 | w2 = 0.18
278.15 K | 1260.18 ± 0.17 | 1263.04 ± 0.17 | 1271.43 ± 0.18 | 1279.83 ± 0.19 | 1284.18 ± 0.2 | 1290.02 ± 0.21
283.15 K | 1256.74 ± 0.17 | 1259.61 ± 0.17 | 1268.01 ± 0.18 | 1276.43 ± 0.19 | 1280.78 ± 0.2 | 1286.63 ± 0.21
288.15 K | 1253.31 ± 0.16 | 1256.19 ± 0.17 | 1264.58 ± 0.18 | 1273.02 ± 0.19 | 1277.37 ± 0.2 | 1283.21 ± 0.2
293.15 K | 1249.88 ± 0.16 | 1252.77 ± 0.17 | 1261.19 ± 0.18 | 1269.61 ± 0.19 | 1273.96 ± 0.19 | 1279.8 ± 0.2
298.15 K | 1246.45 ± 0.16 | 1249.35 ± 0.17 | 1257.81 ± 0.18 | 1266.25 ± 0.19 | 1270.6 ± 0.19 | 1276.37 ± 0.2
303.15 K | 1243.04 ± 0.16 | 1245.93 ± 0.16 | 1254.43 ± 0.17 | 1262.9 ± 0.19 | 1267.26 ± 0.19 | 1273 ± 0.2
308.15 K | 1239.63 ± 0.16 | 1242.53 ± 0.16 | 1251.04 ± 0.17 | 1259.54 ± 0.18 | 1263.91 ± 0.19 | 1269.64 ± 0.2
313.15 K | 1236.25 ± 0.16 | 1239.14 ± 0.16 | 1247.66 ± 0.17 | 1256.17 ± 0.18 | 1260.56 ± 0.19 | 1266.26 ± 0.2
318.15 K | 1232.88 ± 0.16 | 1235.77 ± 0.16 | 1244.29 ± 0.17 | 1252.82 ± 0.18 | 1257.21 ± 0.19 | 1262.88 ± 0.19
323.15 K | 1229.52 ± 0.15 | 1232.42 ± 0.16 | 1240.94 ± 0.17 | 1249.47 ± 0.18 | 1253.87 ± 0.19 | 1259.51 ± 0.19
328.15 K | 1226.18 ± 0.15 | 1229.08 ± 0.16 | 1237.6 ± 0.17 | 1246.13 ± 0.18 | 1250.54 ± 0.18 | 1256.14 ± 0.19
333.15 K | 1222.86 ± 0.15 | 1225.74 ± 0.15 | 1234.28 ± 0.17 | 1242.81 ± 0.18 | 1247.23 ± 0.18 | 1252.8 ± 0.19
338.15 K | 1219.54 ± 0.15 | 1222.46 ± 0.15 | 1230.97 ± 0.16 | 1239.5 ± 0.17 | 1243.93 ± 0.18 | 1249.49 ± 0.19
343.15 K | 1216.24 ± 0.15 | 1219.17 ± 0.15 | 1227.66 ± 0.16 | 1236.2 ± 0.17 | 1240.64 ± 0.18 | 1246.21 ± 0.19

O=C(CO)[C@@H](O)[C@H](O)[C@H](O)CO [D-fructose] + CCOS(=O)(=O)[O-].CCn1cc[n+](C)c1
mass density [kg/m3]
Details | w1 = 0.069 | w1 = 0.104 | w1 = 0.171 | w1 = 0.248 | w1 = 0.266 | w1 = 0.307
278.15 K | 1265.07 ± 0.17 | 1272.55 ± 0.18 | 1287.93 ± 0.21 | 1306.03 ± 0.23 | 1310.46 ± 0.24 | 1320.13 ± 0.26
283.15 K | 1261.63 ± 0.17 | 1269.11 ± 0.18 | 1284.51 ± 0.2 | 1302.63 ± 0.23 | 1307.07 ± 0.24 | 1316.76 ± 0.26
288.15 K | 1258.21 ± 0.17 | 1265.68 ± 0.18 | 1281.07 ± 0.2 | 1299.21 ± 0.23 | – | 1313.36 ± 0.25
293.15 K | 1254.78 ± 0.17 | 1262.28 ± 0.18 | 1277.63 ± 0.2 | 1295.77 ± 0.23 | 1300.21 ± 0.24 | 1309.93 ± 0.25
298.15 K | 1251.35 ± 0.17 | 1258.88 ± 0.18 | 1274.21 ± 0.2 | 1292.29 ± 0.23 | 1296.72 ± 0.23 | 1306.43 ± 0.25
303.15 K | 1247.93 ± 0.17 | 1255.47 ± 0.18 | 1270.78 ± 0.2 | 1288.73 ± 0.23 | 1293.13 ± 0.23 | 1302.82 ± 0.25
308.15 K | 1244.5 ± 0.16 | 1252.05 ± 0.17 | 1267.3 ± 0.2 | 1285.14 ± 0.22 | 1289.48 ± 0.23 | 1299.08 ± 0.25
313.15 K | 1241.08 ± 0.16 | 1248.62 ± 0.17 | 1263.76 ± 0.19 | 1281.5 ± 0.22 | 1285.81 ± 0.23 | 1295.34 ± 0.24
318.15 K | 1237.67 ± 0.16 | 1245.19 ± 0.17 | 1260.19 ± 0.19 | 1277.84 ± 0.22 | 1282.13 ± 0.23 | 1291.62 ± 0.24
323.15 K | 1234.25 ± 0.16 | 1241.74 ± 0.17 | 1256.61 ± 0.19 | 1274.19 ± 0.22 | 1278.47 ± 0.22 | 1287.95 ± 0.24
328.15 K | 1230.83 ± 0.16 | 1238.29 ± 0.17 | 1253.07 ± 0.19 | 1270.58 ± 0.22 | 1274.85 ± 0.22 | 1284.29 ± 0.24
333.15 K | 1227.42 ± 0.16 | 1234.86 ± 0.17 | 1249.57 ± 0.19 | 1267.01 ± 0.21 | 1271.26 ± 0.22 | 1280.66 ± 0.24
338.15 K | 1224.03 ± 0.16 | 1231.44 ± 0.16 | 1246.09 ± 0.19 | 1263.46 ± 0.21 | 1267.69 ± 0.22 | 1277.05 ± 0.24
343.15 K | 1220.66 ± 0.15 | 1228.04 ± 0.16 | 1242.65 ± 0.18 | 1259.93 ± 0.21 | 1264.14 ± 0.22 | 1273.45 ± 0.23

OC[C@@H](O)[C@@H](O)[C@H](O)[C@@H](O)CO [D-sorbitol] + CCOS(=O)(=O)[O-].CCn1cc[n+](C)c1
mass density [kg/m3]
Details | w1 = 0.037 | w1 = 0.056 | w1 = 0.113 | w1 = 0.16 | w1 = 0.182 | w1 = 0.202
278.15 K | 1255.77 ± 0.16 | 1258.66 ± 0.17 | 1267.3 ± 0.18 | 1274.68 ± 0.19 | 1278.11 ± 0.2 | 1281.13 ± 0.21
283.15 K | 1252.33 ± 0.16 | 1255.52 ± 0.17 | 1263.85 ± 0.18 | 1271.21 ± 0.19 | 1274.65 ± 0.2 | 1277.67 ± 0.2
288.15 K | 1248.88 ± 0.16 | 1251.77 ± 0.17 | 1260.41 ± 0.18 | 1267.76 ± 0.19 | 1271.19 ± 0.2 | 1274.21 ± 0.2
293.15 K | 1245.42 ± 0.16 | 1248.33 ± 0.16 | 1256.99 ± 0.18 | 1264.34 ± 0.19 | 1267.76 ± 0.2 | 1270.77 ± 0.2
298.15 K | 1241.97 ± 0.16 | 1244.88 ± 0.16 | 1253.56 ± 0.18 | 1260.93 ± 0.19 | 1264.36 ± 0.19 | 1267.36 ± 0.2
303.15 K | 1238.54 ± 0.16 | 1241.45 ± 0.16 | 1250.14 ± 0.17 | 1257.52 ± 0.19 | 1260.96 ± 0.19 | 1263.97 ± 0.2
308.15 K | 1235.13 ± 0.16 | 1238.04 ± 0.16 | 1246.73 ± 0.17 | 1254.11 ± 0.18 | 1257.55 ± 0.19 | 1260.56 ± 0.2
313.15 K | 1231.74 ± 0.15 | 1234.65 ± 0.16 | 1243.33 ± 0.17 | 1250.71 ± 0.18 | 1254.15 ± 0.19 | 1257.16 ± 0.19
318.15 K | 1228.36 ± 0.15 | 1231.27 ± 0.16 | 1239.95 ± 0.17 | 1247.32 ± 0.18 | 1250.77 ± 0.19 | 1253.77 ± 0.19
323.15 K | 1225 ± 0.15 | 1227.91 ± 0.15 | 1236.59 ± 0.17 | 1243.95 ± 0.18 | 1247.4 ± 0.19 | 1250.4 ± 0.19
328.15 K | 1221.65 ± 0.15 | 1224.56 ± 0.15 | 1233.25 ± 0.17 | 1240.6 ± 0.18 | 1244.04 ± 0.18 | 1247.03 ± 0.19
333.15 K | 1218.32 ± 0.15 | 1221.23 ± 0.15 | 1229.92 ± 0.16 | 1237.26 ± 0.18 | 1240.7 ± 0.18 | 1243.69 ± 0.19
338.15 K | 1215 ± 0.15 | 1217.9 ± 0.15 | 1226.61 ± 0.16 | 1233.93 ± 0.18 | 1237.37 ± 0.18 | 1240.35 ± 0.19
343.15 K | 1211.69 ± 0.15 | 1214.59 ± 0.15 | 1223.3 ± 0.16 | 1230.62 ± 0.17 | 1234.06 ± 0.18 | 1237.03 ± 0.19

OC[C@@H](O)[C@H](O)[C@@H](O)CO [xylitol] + CCOS(=O)(=O)[O-].CCn1cc[n+](C)c1
mass density [kg/m3]
Details | w1 = 0.05 | w1 = 0.07 | w1 = 0.098 | w1 = 0.131 | w1 = 0.15 | w1 = 0.169
278.15 K | 1256.32 ± 0.97 | 1258.74 ± 0.97 | 1261.95 ± 0.97 | 1267.09 ± 0.97 | 1269.01 ± 0.97 | 1271.21 ± 0.97
283.15 K | 1252.87 ± 0.97 | 1255.31 ± 0.97 | 1258.5 ± 0.97 | 1263.64 ± 0.97 | 1265.56 ± 0.97 | 1267.75 ± 0.97
288.15 K | 1249.41 ± 0.97 | 1251.86 ± 0.97 | 1255.06 ± 0.97 | 1260.2 ± 0.97 | 1262.12 ± 0.97 | 1264.31 ± 0.97
293.15 K | 1245.95 ± 0.97 | 1248.4 ± 0.97 | 1251.62 ± 0.97 | 1256.76 ± 0.97 | 1258.69 ± 0.97 | 1260.89 ± 0.97
298.15 K | 1242.51 ± 0.97 | 1244.96 ± 0.97 | 1248.2 ± 0.97 | 1253.33 ± 0.97 | 1255.25 ± 0.97 | 1257.46 ± 0.97
303.15 K | 1239.07 ± 0.97 | 1241.53 ± 0.97 | 1244.78 ± 0.97 | 1249.9 ± 0.97 | 1251.82 ± 0.97 | 1254.03 ± 0.97
308.15 K | 1235.66 ± 0.97 | 1238.11 ± 0.97 | 1241.38 ± 0.97 | 1246.49 ± 0.97 | 1248.41 ± 0.97 | 1250.61 ± 0.97
313.15 K | 1232.27 ± 0.97 | 1234.72 ± 0.97 | 1238.01 ± 0.97 | 1243.08 ± 0.97 | 1245 ± 0.97 | 1247.2 ± 0.97
318.15 K | 1228.89 ± 0.96 | 1231.34 ± 0.97 | 1234.65 ± 0.97 | 1239.7 ± 0.97 | 1241.62 ± 0.97 | 1243.81 ± 0.97
323.15 K | 1225.53 ± 0.96 | 1227.97 ± 0.97 | 1231.3 ± 0.97 | 1236.33 ± 0.97 | 1238.25 ± 0.97 | 1240.44 ± 0.97
328.15 K | 1222.18 ± 0.96 | 1224.62 ± 0.97 | 1227.97 ± 0.97 | 1232.97 ± 0.97 | 1234.89 ± 0.97 | 1237.08 ± 0.97
333.15 K | 1218.84 ± 0.96 | 1221.29 ± 0.96 | 1224.64 ± 0.97 | 1229.63 ± 0.97 | 1231.55 ± 0.97 | 1233.73 ± 0.97
338.15 K | 1215.52 ± 0.96 | 1217.96 ± 0.96 | 1221.33 ± 0.97 | 1226.3 ± 0.97 | – | 1230.39 ± 0.97
343.15 K | 1212.21 ± 0.96 | 1214.65 ± 0.96 | 1218.02 ± 0.97 | 1222.98 ± 0.97 | – | 1227.06 ± 0.97
